US20200405868A1, “GEL-FORMING POLYPEPTIDES” (priority 2018, published 2020)
pIC50: −log10 of the molar value. Where a SMILES comes first, the peptide text is derived from it. Bridges are numbered along the chain shown (N, C = ends). [ ]: non-standard residue; d: D form. The star is where a group is joined. Palmitoyl = CCCCCCCCCCCCCCCC(=O)*; AEEA = NCCOCCOCC(=O)O

Key:
[1] = target: melanocortin receptor 4 (MC4R) (Homo sapiens, UniProt P32245); experiment: MC4R cAMP assay (Discoverx), agonistic; assay type: cell-based
melanocortin receptor 4 (MC4R), sequence (P32245 whole entry): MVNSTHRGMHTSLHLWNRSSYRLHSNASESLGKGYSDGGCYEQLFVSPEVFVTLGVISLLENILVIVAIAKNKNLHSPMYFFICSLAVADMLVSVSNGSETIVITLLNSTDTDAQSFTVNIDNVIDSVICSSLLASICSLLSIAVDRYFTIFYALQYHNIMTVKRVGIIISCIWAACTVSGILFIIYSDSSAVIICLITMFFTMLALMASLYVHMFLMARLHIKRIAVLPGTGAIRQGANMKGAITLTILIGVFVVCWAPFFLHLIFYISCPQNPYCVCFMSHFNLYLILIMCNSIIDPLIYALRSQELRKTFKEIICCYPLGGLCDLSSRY
Protocol: (§1) The agonistic activities toward MC1R, MC4R, CRHR2, PTHR1, and OPRK1 were assyed with an MC1R cAMP assay, an MC4R cAMP assay, a CRHR2 cAMP assay, a PTHR1 cAMP assay and an OPRK1 cAMP assay from Discoverx Inc. (Fremont, Calif.), respectively. The antagonistic activities toward bradykinin receptor 2 (BDKRB2) and GnRH receptor (GnRHR or LHRHR) were assayed with a BDKRB2 arrestin assay and a GnRHR calcium flux assay from Discoverx, respectively.
(§2) For the analysis of Gs-coupled cAMP production, cAMP Hunter cell lines were expanded from freezer stocks, and cells were seeded in a total volume of 20 μL into white walled, 384-well microplates and incubated at 37 C for the appropriate time prior to testing. The cAMP modulation was determined using the DiscoverX HitHunter cAMP XS+ assay. For agonistic activity determination, cells were incubated with sample to induce response. Media was aspirated from cells and replaced with 15 μL 2:1 HBSS/10 mM Hepes: cAMP XS+ Ab reagent. […] The compound activity was analyzed using a CBIS data analysis suite (ChemInnovation, CA). For Gs-coupled agonistic assays, percentage activity is calculated using the following formula: % Activity=100%×(mean RLU of test sample−mean RLU of vehicle control)/(mean RLU of MAX control−mean RLU of vehicle control).

[2] = target: T1, bradykinin receptor 2 (BDKRB2) (Homo sapiens, UniProt P30411); experiment: BDKRB2 arrestin assay (Discoverx), antagonistic; assay type: cell-based
T1 sequence (P30411 1-391): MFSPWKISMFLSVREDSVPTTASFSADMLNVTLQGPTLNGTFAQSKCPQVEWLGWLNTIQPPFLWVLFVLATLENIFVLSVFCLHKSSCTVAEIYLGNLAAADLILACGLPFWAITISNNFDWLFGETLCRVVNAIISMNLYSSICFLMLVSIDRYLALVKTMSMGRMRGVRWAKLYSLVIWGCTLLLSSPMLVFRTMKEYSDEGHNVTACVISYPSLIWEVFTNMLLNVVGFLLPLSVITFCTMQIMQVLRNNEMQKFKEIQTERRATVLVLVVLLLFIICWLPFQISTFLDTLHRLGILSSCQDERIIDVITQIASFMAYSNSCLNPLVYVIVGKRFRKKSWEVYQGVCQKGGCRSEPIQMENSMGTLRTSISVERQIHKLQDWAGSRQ
Protocol: For the Arrestin assays, PathHunter cell lines (Discoverx Inc.) were expanded from freezer stocks, and seeded in a total volume of 20 μL into white walled, 384-well microplates and incubated at 37 C for the appropriate time prior to testing. […] For antagonistic activity determination, cells were pre-incubated with antagonist followed by agonist challenge at the EC80 concentration. Intermediate dilution of sample stocks was performed to generate 5× sample in assay buffer, and 5 μL of 5× sample was added to cells and incubated at 37° C. or room temperature for 30 minutes. Vehicle concentration was 1%. Then, 5 μL of 6×EC80 agonist in assay buffer was added to the cells and incubated at 37 C or room temperature for 90 or 180 minutes.
Assay signal was generated through a single addition of 12.5 or 15 μL (50% v/v) of PathHunter Detection reagent cocktail, followed by an one hour incubation at room temperature. The microplates were read following signal generation with a PerkinElmer Envision™ instrument for chemiluminescent signal detection. The compound activity was analyzed using a CBIS data analysis suite (ChemInnovation, CA). […] For antagonistic activity assays, percentage inhibition was calculated using the following formula: % Inhibition=100%×(1−(mean RLU of test sample−mean RLU of vehicle control)/(mean RLU of EC80 control−mean RLU of vehicle control)).

[3] = Compound gel-forming ability in water (visual inspection, tube tapping assay, tilted tube assay); assay type: physicochemical; conditions: for gel formation at 11% w/w: 11% w/w in water; for gel formation at 20% w/w: 20% w/w in water; for gel formation in aqueous solution, 6% / propensity to form gels, chimeric or mutated polypeptides, 6%: 6% w/w;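 as to all read-outs here: peptides mixed with de-ionized water at about 22-25 °C, judged after 20 min by eye plus tube tapping (10 taps, moves counted) and 90° tilt mobility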
[4] = target: kappa opioid receptor (OPRK1) (Homo sapiens, UniProt P41145); experiment: OPRK1 cAMP assay (Discoverx), agonistic; assay type: cell-based
kappa opioid receptor (OPRK1), sequence (P41145 whole entry): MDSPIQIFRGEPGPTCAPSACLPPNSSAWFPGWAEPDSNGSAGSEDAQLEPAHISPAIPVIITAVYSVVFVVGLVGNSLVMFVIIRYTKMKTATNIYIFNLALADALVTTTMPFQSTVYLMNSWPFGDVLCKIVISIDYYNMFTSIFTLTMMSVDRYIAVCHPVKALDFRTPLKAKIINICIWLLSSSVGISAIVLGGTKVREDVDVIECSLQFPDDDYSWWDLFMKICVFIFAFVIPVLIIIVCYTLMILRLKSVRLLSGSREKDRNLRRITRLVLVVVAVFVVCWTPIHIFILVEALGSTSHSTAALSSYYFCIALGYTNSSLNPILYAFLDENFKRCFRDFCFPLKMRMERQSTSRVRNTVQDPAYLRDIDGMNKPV
Protocol: as §1, §2

PTH receptor 1 (PTHR1) = target: T2, PTH receptor 1 (PTHR1) (Homo sapiens, UniProt Q03431); experiment: PTHR1 cAMP assay (Discoverx), agonistic; assay type: cell-based
T2 sequence (Q03431 27-593): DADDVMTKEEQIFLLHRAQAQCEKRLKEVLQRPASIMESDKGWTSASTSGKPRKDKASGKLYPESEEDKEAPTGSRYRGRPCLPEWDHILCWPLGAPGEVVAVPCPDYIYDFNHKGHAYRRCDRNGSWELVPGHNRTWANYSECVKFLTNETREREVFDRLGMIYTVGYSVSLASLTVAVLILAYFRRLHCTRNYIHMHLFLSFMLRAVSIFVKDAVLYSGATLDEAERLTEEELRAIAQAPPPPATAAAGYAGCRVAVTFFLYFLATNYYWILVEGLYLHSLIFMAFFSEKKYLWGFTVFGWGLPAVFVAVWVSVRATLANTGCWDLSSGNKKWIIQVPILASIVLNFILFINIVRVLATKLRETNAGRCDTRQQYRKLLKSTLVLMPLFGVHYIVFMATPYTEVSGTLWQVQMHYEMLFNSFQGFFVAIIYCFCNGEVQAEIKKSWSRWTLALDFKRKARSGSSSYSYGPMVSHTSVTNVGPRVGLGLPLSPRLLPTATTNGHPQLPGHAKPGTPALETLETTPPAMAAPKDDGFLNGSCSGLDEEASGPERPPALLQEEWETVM
Protocol: as §1, §2

Max Activity % of positive control [2] | gel formation at 11% w/w [3] | gel formation at 20% w/w [3] | gel formation in aqueous solution, 20% ([3]; Table 3, 20% w/w) | Compound | gel formation in aqueous solution, 11% ([3]; Table 3, 11% w/w) | gel formation in aqueous solution, 6% ([3]; Table 3) | propensity to form gels, chimeric or mutated polypeptides, 6% ([3]; Table 5) | propensity to form gels, chimeric or mutated polypeptides, 11% ([3]; Table 5, 11% w/w) | propensity to form gels, chimeric or mutated polypeptides, 20% ([3]; Table 5, 20% w/w) | Max Activity % of positive control (PTH receptor 1 (PTHR1)) | further results
 |  |  |  | CCCCCCCCCCCCCCCC(=O)N[C@@H](Cc1c[nH]cn1)C(=O)N[C@@H](CO)C(=O)N[C@@H](Cc1ccc(O)cc1)C(=O)N[C@@H](CCCNC(=N)N)C(=O)N[C@H]1CSSC[C@@H](C(N)=O)NC(=O)[C@H](Cc2c[nH]c3ccccc23)NC(=O)[C@H](CCCNC(=N)N)NC(=O)[C@@H](Cc2ccccc2)NC(=O)[C@H](Cc2c[nH]cn2)NC(=O)[C@@H](C)NC1=O [SEQ ID NO:228, Pal-HSYRC-(D-Ala)-H-(D-Phe)-RWC-NH2] (Palmitoyl-HSYRC[dA]H[dF]RWC-NH2; disulfide 5-11 (inferred)) |  |  |  |  |  |  | Max Activity % of positive control [1]: 115 % of positive control
112 % of positive control |  | semisolid gel | SS (SS for semisolid gel) | CCCCCCCCCCCCCCCC(=O)N[C@@H](Cc1c[nH]cn1)C(=O)N[C@@H](CO)C(=O)N[C@@H](Cc1ccc(O)cc1)C(=O)N[C@H](CCCNC(=N)N)C(=O)N[C@@H](CCCNC(=N)N)C(=O)N1CCC[C@H]1C(=O)N1C[C@H](O)C[C@H]1C(=O)NCC(=O)N[C@@H](Cc1cccs1)C(=O)N[C@@H](CO)C(=O)N1Cc2ccccc2C[C@@H]1C(=O)N1[C@H](C(=O)N[C@@H](CCCNC(=N)N)C(N)=O)C[C@@H]2CCCC[C@@H]21 [SEQ ID NO:234, Pal-HSY-(D-Arg)-Arg-Pro-Hyp-Gly-Thi-Ser-(D-Tic)-Oic-Arg-NH2] | AS/IS (AS/IS for aqueous solution or insoluble) | AS/IS (AS/IS for aqueous solution or insoluble) | AS/IS | AS/IS | SS (An ability to form semisolid gel is represented by an SS) |  | pIC50 ([2]; bradykinin-stimulated): 7.27
 | liquid gel | semisolid gel | SS (SS for semisolid gel) | CCCCCCCCCCCCCCCC(=O)N[C@@H](Cc1c[nH]cn1)C(=O)N[C@@H](CO)C(=O)N[C@@H](Cc1ccc(O)cc1)C(=O)N[C@@H](CO)C(=O)N[C@@H](CCC(=O)O)C(=O)N[C@H](C(=O)N[C@@H](CCC(N)=O)C(=O)N[C@@H](CC(C)C)C(=O)N[C@@H](CCSC)C(=O)N[C@@H](Cc1c[nH]cn1)C(=O)N[C@@H](CC(N)=O)C(=O)N[C@@H](CC(C)C)C(=O)NCC(=O)N[C@@H](CCCCN)C(=O)N[C@@H](Cc1c[nH]cn1)C(=O)N[C@@H](CC(C)C)C(=O)N[C@@H](CC(N)=O)C(=O)N[C@@H](CO)C(=O)N[C@@H](CCSC)C(=O)N[C@@H](CCC(=O)O)C(=O)N[C@@H](CCCNC(=N)N)C(=O)N[C@H](C(=O)N[C@@H](CCC(=O)O)C(=O)N[C@@H](Cc1c[nH]c2ccccc12)C(=O)N[C@@H](CC(C)C)C(=O)N[C@@H](CCCNC(=N)N)C(=O)N[C@@H](CCCCN)C(=O)N[C@@H](CCCCN)C(=O)N[C@@H](CC(C)C)C(=O)N[C@@H](CCC(N)=O)C(=O)N[C@@H](CC(=O)O)C(=O)N[C@H](C(=O)N[C@@H](Cc1c[nH]cn1)C(=O)N[C@@H](CC(N)=O)C(=O)N[C@@H](Cc1ccccc1)C(=O)O)C(C)C)C(C)C)[C@@H](C)CC [SEQ ID NO:232] (Palmitoyl-HSYSEIQLMHNLGKHLNSMERVEWLRKKLQDVHNF-OH; C-terminus assumed) |  |  |  |  | SS (An ability to form semisolid gel is represented by an SS) | 59 % of positive control | 
 |  |  |  | PTH (1-34) [reference compound] |  |  |  |  |  | 101 % of positive control | 

Compound | Max Activity % of positive control [2] | gel formation at 11% w/w [3] | gel formation at 20% w/w [3] | gel formation in aqueous solution, 20% ([3]; Table 3, 20% w/w) | gel formation in aqueous solution, 11% ([3]; Table 3, 11% w/w) | gel formation in aqueous solution, 6% ([3]; Table 3) | propensity to form gels, chimeric or mutated polypeptides, 6% ([3]; Table 5) | propensity to form gels, chimeric or mutated polypeptides, 11% ([3]; Table 5, 11% w/w) | propensity to form gels, chimeric or mutated polypeptides, 20% ([3]; Table 5, 20% w/w) | Max Activity % of positive control (PTH receptor 1 (PTHR1)) | further results
N=C(N)NCCC[C@@H](N)C(=O)N[C@@H](CCCNC(=N)N)C(=O)N1CCC[C@H]1C(=O)N1C[C@H](O)C[C@H]1C(=O)NCC(=O)N[C@@H](Cc1cccs1)C(=O)N[C@@H](CO)C(=O)N1Cc2ccccc2C[C@@H]1C(=O)N1[C@H](C(=O)N[C@@H](CCCNC(=N)N)C(=O)O)C[C@@H]2CCCC[C@@H]21 [SEQ ID NO:32, (D-Arg)-Arg-Pro-Hyp-Gly-Thi-Ser-(D-Tic)-Oic-Arg, reference compound] | 100 % of positive control | does not form gel | does not form gel | AS/IS (AS/IS for aqueous solution or insoluble) | AS/IS (AS/IS for aqueous solution or insoluble) |  |  |  |  |  | gel formation at 30% w/w ([3]; 30% w/w in water): does not form gel; Physical property at 11% w/w ([3]; Table 1, 11% w/w in aqueous solution, room temperature): AS/IS; gel formation in aqueous solution, 30% ([3]; Table 3, 30% w/w): AS/IS (AS/IS for aqueous solution or insoluble); propensity to form gels, wild-type counterparts, 11% ([3]; Table 5, 11% w/w): AS/IS; propensity to form gels, wild-type counterparts, 20% ([3]; Table 5, 20% w/w): AS/IS
CCCCCCCCCCCCCCCC(=O)N[C@@H](CO)C(=O)N[C@@H](CO)C(=O)N1CCC[C@H]1C(=O)N[C@@H](Cc1c[nH]cn1)C(=O)N[C@@H](CO)C(=O)N[C@@H](Cc1ccc(O)cc1)C(=O)NCCOCCOCC(=O)N[C@H](Cc1ccccc1)C(=O)N[C@H](Cc1ccccc1)C(=O)N[C@@H](Cc1c[nH]c2ccccc12)C(=O)N[C@H](CCCNC(=N)N)C(=O)O [SEQ ID NO:214, Pal-SSPHSY-miniPEG-(D-Phe)-(D-Phe)-Trp-(D-Arg)] (Palmitoyl-SSPHSY[AEEA][dF][dF]W[dR]-OH; N-terminus and C-terminus assumed) |  | semisolid gel |  |  | SS (SS for semisolid gel) | SS (SS for semisolid gel) | SS (An ability to form semisolid gel is represented by an SS) | SS (An ability to form semisolid gel is represented by an SS) |  |  | Max Activity % of positive control [4]: 62 % of positive control; gel formation at 3% w/w ([3]; 3% w/w in water): liquid gel; gel formation at 6% w/w ([3]; 6% w/w in water): semisolid gel
